Laboratory results taken from PubChem BioAssay AID1996.
Converted amounts (≈) assume the structure as drawn.

Conditions: buffer; pH 7.4; 200.0 µM

| solubility kinetic [µg/mL] | SMILES |
| --- | --- |
| 4.1 (≈ 12.2 µM) | COc1ccc(C(=O)OCC(=O)NC(=O)NC2CCCC2)c(O)c1 |
| 39.4 (≈ 109 µM) | COc1cc(C(=O)NCCNC(=O)c2cnccn2)cc(OC)c1OC |
| > 35.9 | C#CCn1ccc(O)c(Cc2ccccc2)c1=O |
| > 36 | Cl.O=S1(=O)CCC(NC2CCCC2)C1 (stereo not drawn) |
| 7.6 (≈ 24.1 µM) | CCc1ccc(/C=C/c2c([N+](=O)[O-])c(=O)n(C)c(=O)n2C)cc1 |
| 14.6 (≈ 40 µM) | Cc1ccc2c(C(=O)CN3CCN(C(=O)c4ccco4)CC3)c(C)[nH]c2c1 |
| 19.7 (≈ 60.7 µM) | CC(=O)c1cccc(NC(=O)CCn2c(=O)oc3ccccc32)c1 |
| 12.6 (≈ 36.5 µM) | COc1ccccc1-n1cnc2cc(NCc3ccccc3O)ccc21 |
| < 0.8 | C=CCOc1ccc(/C=C/C(=O)OCC(=O)NC2CCCCCC2)cc1 |
| 36.9 (≈ 129 µM) | O=C(COc1ccc2ccccc2c1)NCC1CCCO1 (stereo not drawn) |
| > 50.9 | CN(CC(=O)Nc1ccc(F)c(F)c1F)C(=O)c1ccc(=O)[nH]c1 |
| > 57.2 | COc1ccc(N2CCN(c3ccc(NC(=O)/C=C\C(=O)O)cc3)CC2)cc1 |
| > 44.2 | COc1cccc2[nH]c(C(=O)NC(C)c3ccccc3)cc12 (stereo not drawn) |
| 3.3 (≈ 11.3 µM) | COC(=O)c1ccc(COc2ccc(C)cc2[N+](=O)[O-])o1 |
| 1 (≈ 2.88 µM) | O=C(CCc1c[nH]c2ccccc12)OCc1cccc(C(F)(F)F)c1 |
| > 56.3 | NS(=O)(=O)c1ccc(CCNC(=O)CNC(=O)Cc2ccccc2)cc1 |
| 3.8 (≈ 10.7 µM) | Cc1noc(C)c1-c1nc(CS(=O)(=O)c2ccc(Cl)cc2)no1 |
| 0.7 (≈ 2.35 µM) | COc1ccc(C(=O)/C=C2\Sc3ccccc3N2C)cc1 |
| > 33.5 | CCOc1cc(C=O)ccc1OCC(N)=O |
| 43 (≈ 104 µM) | COc1ccc(OC)c(N(CC(=O)Nc2cccc3ccccc23)S(C)(=O)=O)c1 |

| solubility kinetic [µg/mL] | SMILES |
| --- | --- |
| 1.5 (≈ 4.98 µM) | O=S(=O)(Nc1cccc2ccccc12)c1ccccc1F |
| 13.1 (≈ 45.1 µM) | CC(C)N(Cc1ccccc1)C(=S)NC1CCCCC1 |
| > 56.2 | O=C(NCc1ccco1)c1ccc(NS(=O)(=O)c2cccc(F)c2)cc1 |
| > 46 | CC12CC3CC(C)(C1)CC(NCc1ccncc1)(C3)C2.Cl |
| 30.1 (≈ 109 µM) | Clc1ccc(-c2ccc(CN3CCCCC3)o2)cc1 |
| > 40 | Cc1noc(C)c1COC(=O)c1cccnc1Cl |
| > 45.7 | COc1ccc(C)cc1NC(=O)CSc1cccc[n+]1[O-] |
| 1.2 (≈ 3.87 µM) | COc1ccccc1NC(=O)c1c(O)c2ccccc2[nH]c1=O |
| < 0.4 | COc1ccc(C(=O)Nc2ccc(C3(C#N)CCCC3)cc2)cc1OC |
| 8.4 (≈ 28.1 µM) | c1ccc(C2CC(c3ccccc3)C(c3ccccc3)N2)cc1 (stereo not drawn) |
| 22.9 (≈ 66.5 µM) | CCOC(=O)N1CCN(C(=O)/C=C/c2ccc(C(C)(C)C)cc2)CC1 |
| 44.9 (≈ 149 µM) | Cc1noc(C)c1C(=O)N1CCN(c2ccccc2O)CC1 |
| 14.5 (≈ 38.4 µM) | O=C(CN1C(=O)NC2(CCCC2)C1=O)NC(c1ccccc1)c1ccccc1 |
| > 43.7 | COC(=O)[C@@H](NC(=O)/C=C/c1ccc(OC)cc1)C(C)C |
| < 0.3 | CC(=O)c1sc(NC(=O)c2ccc(C(C)(C)C)cc2)nc1C |
| 31.9 | Cl.Nc1cccc(Nc2ncnc3ccccc23)c1 |
| > 48.5 | Cc1cc(=O)oc2cc(NC(=O)c3ccccc3C(=O)O)ccc12 |
| > 41.3 | O=S(=O)(Nc1ccccc1)c1cccc2nonc12 |
| > 35 | Nc1ccccc1C(=O)NC1CCCNC1=O (stereo not drawn) |
| 3.7 (≈ 9.88 µM) | O=C(Nc1cccc(O)c1)c1ccc(S(=O)(=O)N2CCCCCC2)cc1 |

| solubility kinetic [µg/mL] | SMILES |
| --- | --- |
| 5.7 (≈ 17.6 µM) | CCOc1ccc(N2C(=O)CC(C(C)c3ccccc3)C2=O)cc1 (stereo not drawn) |
| 6.7 (≈ 22.2 µM) | O=C1Nc2ccccc2C1=Nc1ccc(Br)cc1 |
| > 46.2 | O=C(NCCCn1ccnc1)c1ccccc1Br |
| > 29.7 | C(=N\Nc1ccccn1)/c1cccnc1 |
| 43.5 (≈ 141 µM) | CC(=O)Nc1ccc(N2CCN(Cc3ccccc3)CC2)cc1 |
| > 50.8 | CCN(CC)CC1C(=O)N(c2ccc(OC)cc2)C1c1ccccc1 (stereo not drawn) |
| 10.8 (≈ 28.7 µM) | CN(C)S(=O)(=O)c1cccc(NC(=O)CC23CC4CC(CC(C4)C2)C3)c1 |
| 35.6 (≈ 127 µM) | CCc1ccc(S(=O)(=O)NCc2cccs2)cc1 |
| > 52.1 | O=C(CSc1ccc(-c2ccc(F)cc2)nn1)NCC1CCCO1 (stereo not drawn) |
| 44.3 (≈ 135 µM) | O=C(O)C1C2CCC(O2)C1C(=O)Nc1ccc(OC(F)F)cc1 (stereo not drawn) |
| > 45.5 | CC(C)(C)C(=O)Nc1sc(-c2ccccc2)cc1C(=O)O |
| 1.5 (≈ 4.34 µM) | Cc1nc2c3c(sc2c(=O)[nH]1)NC(=O)CC3c1ccccc1Cl (stereo not drawn) |
| 38.7 (≈ 129 µM) | CN(CC(=O)NCCc1ccc(F)cc1)Cc1ccccc1 |
| 0.2 (≈ 0.64 µM) | Cc1cccn2c(=O)c(/C=N/O)c(Nc3ccccc3F)nc12 |
| 45.2 (≈ 128 µM) | COC(=O)c1sc(C(C)(C)C)cc1CS(=O)(=O)c1ccccn1 |
| > 44 | C=CCn1cc(C(=O)OCC)c(=O)c2cc(F)c(F)cc21 |
| > 50.5 | COc1ccccc1NS(=O)(=O)c1ccc2[nH]c(=S)oc2c1 |
| 50 (≈ 145 µM) | CC(C(=O)OCC(=O)NC1CCCC1)N1C(=O)c2ccccc2C1=O (stereo not drawn) |
| < 0.2 | COc1cccc(-c2nc(N3CCCC3)c3ccccc3n2)c1O |
| 20.3 (≈ 57.3 µM) | CC1(C)C(=O)Nc2ccccc2N1C(=O)COC(=O)c1cccc(O)c1 |

Second part, the compound before the results:

| SMILES | solubility kinetic [µg/mL] |
| --- | --- |
| CS(=O)(=O)/C(C#N)=C/c1cccn1S(=O)(=O)c1ccccc1 | 6.8 (≈ 20.2 µM) |
| COc1ccc(CC(=O)NCCCc2ccccc2)cc1OC | > 47 |
| COc1ccc(C(C)=O)cc1COC(=O)[C@H](Cc1ccccc1)NC(=O)c1ccco1 | 8 (≈ 19 µM) |
| CCCCN(CCCC)c1ncnc2nc[nH]c12 | 29.8 (≈ 120 µM) |
| O=c1cc(C(F)(F)F)nc(-c2ccccc2OC(F)(F)F)[nH]1 | > 48.6 |
| Cc1c(Cl)cn2c(=O)cc(CN3CCN(c4ccc(F)cc4)CC3)nc2c1Cl | 5 (≈ 11.9 µM) |
| O=C(C1CCCC1)N1CCN(S(=O)(=O)c2cccc(Cl)c2Cl)CC1 | 27.4 (≈ 70 µM) |
| COc1cc(Nc2ncnc(N)n2)cc(OC)c1OC | > 41.6 |
| CCc1noc(C)c1C(=O)N1CCN(S(=O)(=O)c2ccc(Cl)s2)CC1 | 55.4 (≈ 137 µM) |
| Cc1cc(C)c(C(=O)COC(=O)c2cccnc2Cl)c(C)c1 | 7.3 (≈ 23 µM) |
| O=C(COC(=O)c1ccc2ccccc2n1)Nc1ccccc1F | 8.9 (≈ 27.4 µM) |
| Cc1ccc(S(=O)(=O)N2CCN(C(=O)c3cccs3)CC2)cc1C | 44.4 (≈ 122 µM) |
| CCc1ccc(OC(=O)CN2C(=O)c3ccccc3C2=O)cc1 | 39.3 (≈ 127 µM) |
| Cc1ccc(N2C(=O)CCC2(C#N)c2ccccc2)cc1 (stereo not drawn) | > 41.5 |
| Cc1ccc(F)cc1NC(=O)c1cnccn1 | > 34.7 |
| CC(=O)Nc1ccc2c(c1)CCCC2 | > 28.4 |
| COc1ccc(S(=O)(=O)N2CCSC2C)cc1C (stereo not drawn) | 34.9 (≈ 121 µM) |
| CN(C)c1cc(-c2ccc(C#N)cc2)oc(=O)c1Cl | 2.7 (≈ 9.83 µM) |
| Cc1ccccc1Nc1nc(-c2cccnc2)cs1 | 11.2 (≈ 41.9 µM) |
| CCC(C)NC(=O)c1ccc(CSCc2ccc(Cl)cc2)o1 (stereo not drawn) | 22.6 (≈ 66.9 µM) |

| SMILES | solubility kinetic [µg/mL] |
| --- | --- |
| Cc1ccc(S(=O)(=O)NCc2ccccc2)s1 | > 40.1 |
| Cc1cc(C)c(C#N)c(OCc2ccc(Cl)nc2)n1 | 8.5 (≈ 31.1 µM) |
| O=c1c([N+](=O)[O-])c(O)c2cccc3c2n1CCC3 | 36.3 (≈ 147 µM) |
| COc1ccc(S(=O)(=O)Nc2cc3c4c(c2)CC(=O)N4CCC3)cc1 | 50 (≈ 140 µM) |
| COc1ccc(C)cc1NC(=S)NC(C)c1ccc(OC)c(OC)c1 (stereo not drawn) | 13.3 (≈ 36.9 µM) |
| Cn1c(NC2CCCCC2)cc(=O)n(C)c1=O | > 35.6 |
| Cn1cccc1C(=O)OCc1nc2ccccc2c(=O)[nH]1 | 29.6 (≈ 104 µM) |
| O=C(COC(=O)C1CCCC1)NCc1ccc(Cl)cc1 | > 44.4 |
| O=[N+]([O-])c1ccccc1S(=O)(=O)N1CCCC(C(F)(F)F)C1 (stereo not drawn) | 3.1 (≈ 9.16 µM) |
| N#C/C(=C\c1ccccc1)C(=O)NCc1ccc(F)cc1 | 5.3 (≈ 18.9 µM) |
| CC(=O)NC(CC(=O)Nc1ccc(S(=O)(=O)N2CCOCC2)cc1)c1ccccc1 (stereo not drawn) | > 64.7 |
| CCOC(=O)CSc1nc2cc(C(F)(F)F)cnc2n1C | 44.9 (≈ 141 µM) |
| Cc1ccc(NC2SC(=O)N(Cc3cccc(C(=O)O)c3)C2=O)c(C)c1 (stereo not drawn) | 53.1 (≈ 143 µM) |
| O=C1C2C3C=CC(CC3)C2C(=O)N1c1ccc([N+](=O)[O-])cc1 (stereo not drawn) | 3.4 (≈ 11.4 µM) |
| Cc1onc(-c2c(Cl)cccc2Cl)c1C(=O)NN1CCCCCC1 | > 55.2 |
| Cn1c(=O)c(S(=O)C2CCCCC2)c(O)c2ccccc21 (stereo not drawn) | > 45.8 |
| CC(=O)C1=C(O)CC(C)(C)CC1=NCc1nc2ccccc2[nH]1 | > 46.7 |
| O=S(=O)(Oc1ccccc1)c1cccnc1 | 29.4 (≈ 125 µM) |
| O=C(O)c1cc(-c2cccc([N+](=O)[O-])c2)nc2ccccc12 | > 44.1 |
| COCC(=O)Nc1ccc(N2CCOCC2)c(S(=O)(=O)Nc2ccc(OC)cc2)c1 | > 65.3 |

| SMILES | solubility kinetic [µg/mL] |
| --- | --- |
| O=C1OC(c2ccccc2)=N/C1=C\C=C\c1ccco1 | 2 (≈ 7.54 µM) |
| CC(=O)N1CCN(CC(c2ccccc2)c2ccccc2)CC1 | 38.7 (≈ 125 µM) |
| CCOC(=O)N1CCc2c(sc(NC(=O)CN(CC)CC)c2C#N)C1 | > 54.7 |
| Cc1cc(C(=O)Nc2ccc([N+](=O)[O-])cn2)cs1 | 6.2 (≈ 23.5 µM) |
| O=C(NCCCn1ccnc1)c1c(F)cccc1F | 38 (≈ 143 µM) |
| Cc1cc(C)c(C(=O)N(C)C2CCCN(Cc3ccccc3F)C2)o1 (stereo not drawn) | > 51.7 |
| CC(=O)N/C(=N\c1nc(C)cc(C)n1)Nc1ccc2ccccc2c1 | 0.5 (≈ 1.5 µM) |
| O=C1CCCN1c1ccc(S(=O)(=O)N2CCCCC2)cc1 | 22.5 (≈ 73 µM) |
| Cn1cnc2cc(NCc3cccs3)ccc21 | 27.1 (≈ 111 µM) |
| O=C(O)c1c(Cl)nc2ccccn12 | > 29.5 |
| Nc1nc(-c2cc3c(cc2Cl)OCCO3)cs1 | 25.9 (≈ 96.4 µM) |
| O=C(CN1C(=O)C(=O)N(CCC2=CCCCC2)C1=O)Nc1ccc(F)cc1F | 6.5 (≈ 16.6 µM) |
| Cc1ccc(C)n1-c1ccc(C(=O)NCc2ccncc2)cc1 | 38.3 (≈ 125 µM) |
| CC(OC(=O)Cc1ccc(Br)cc1)C(=O)NC1CCCC1 (stereo not drawn) | 48.7 (≈ 137 µM) |
| C=CCN1C(=S)CC(c2ccccc2)=Nc2ccccc21 | 3.3 (≈ 11.3 µM) |
| CNc1snc(C)c1C(=O)OCC(=O)c1ccc(Cl)cc1 | 2.6 (≈ 8.01 µM) |
| Cl.Oc1ccc(-c2csc(Nc3cccc4ccccc34)n2)cc1O | 15.2 |
| CN(CC(=O)Nc1ccc(Cl)c(Cl)c1)C(=O)C1CCC1 | > 47.3 |
